# According to patent US9499492B2, “4-(ortho)-fluorophenyl-5-fluoropyrimidin-2-yl amines containing a sulfoximine group” (BAYER PHARMA AKTIENGESELLSCHAFT, priority 2012, dated 2016):
# pIC50: −log10 of the molar value. Structures can show the parent of a compound that is named as a salt. Where two headings read alike, the source gives them in different places.
# Columns and labels:
# CDK9/CycT1 [1] = biological target: T1, CDK9/CycT1 (Homo sapiens (Human), UniProt P50750); experiment: CDK9/CycT1 kinase assay (Method 1a); assay type: biochemical; conditions: for pIC50: 10 μM ATP; for Selectivity CDK9/CDK2: derived from Methods 1a. and 2.
# Excerpt: 1a. CDK9/CycT1 Kinase Assay:
# CDK9/CycT1-inhibitory activity of compounds of the present invention was quantified employing the CDK9/CycT1 TR-FRET assay as described in the following paragraphs:
# (§1) Recombinant full-length His-tagged human CDK9 and CycT1, expressed in insect cells and purified by Ni-NTA affinity chromatography, were purchased from Invitrogen (Cat. No PV4131). As substrate for the kinase reaction biotinylated peptide biotin-Ttds-[…] (C-terminus in amid form) was used which can be purchased e.g. form the company JERINI Peptide Technologies (Berlin, Germany).
# (§2) For the assay 50 nl of a 100 fold concentrated solution of the test compound in DMSO was pipetted into a black low volume 384 well microtiter plate (Greiner Bio-One, Frickenhausen, Germany), 2 μl of a solution of CDK9/CycT1 in aqueous assay buffer [50 mM Tris/HCl pH 8.0, 10 mM MgCl2, 1.0 mM dithiothreitol, 0.1 mM sodium ortho-vanadate, 0.01% (v/v) Nonidet-P40 (Sigma)] were added and the mixture was incubated for 15 min at 22° C. to allow pre-binding of the test compounds to the enzyme before the start of the kinase reaction. […] The concentration of CDK9/CycT1 was adjusted depending of the activity of the enzyme lot and was chosen appropriate to have the assay in the linear range, typical concentrations were in the range of 1 μg/ml.
# (§3) The resulting mixture was incubated 1 h at 22° C. to allow the formation of complex between the phosphorylated biotinylated peptide and the detection reagents. Subsequently the amount of phosphorylated substrate was evaluated by measurement of the resonance energy transfer from the Eu-chelate to the streptavidine-XL. Therefore, the fluorescence emissions at 620 nm and 665 nm after excitation at 350 nm was measured in a HTRF reader, e.g. a Rubystar (BMG Labtechnologies, Offenburg, Germany) or a Viewlux (Perkin-Elmer). The ratio of the emissions at 665 nm and at 622 nm was taken as the measure for the amount of phosphorylated substrate.
# CDK9/CycT1 [2] = biological target: T1, CDK9/CycT1; experiment: CDK9/CycT1 high ATP kinase assay (Method 1b); assay type: biochemical; conditions: 2 mM ATP
# Procedure: 1b. CDK9/CycT1 High ATP Kinase Assay
# CDK9/CycT1-inhibitory activity of compounds of the present invention at a high ATP concentration after preincubation of enzyme and test compounds was quantified employing the CDK9/CycT1 TR-FRET assay as described in the following paragraphs.
# as §1, with “were purchase” for “were purchased”, “JERINI peptide technologies” for “JERINI Peptide Technologies”
# as §2, with “of 0.5” for “of 1”
# as §3
# CDK2/CycE = CDK2/CycE (Homo sapiens (Human), UniProt P24941); experiment: CDK2/CycE kinase assay (Method 2); assay type: biochemical; conditions: 10 μM ATP
# Excerpt: 2. CDK2/CycE Kinase Assay:
# CDK2/CycE-inhibitory activity of compounds of the present invention was quantified employing the CDK2/CycE TR-FRET assay as described in the following paragraphs:
# Recombinant fusion proteins of GST and human CDK2 and of GST and human CycE, expressed in insect cells (Sf9) and purified by Glutathion-Sepharose affinity chromatography, were purchased from ProQinase GmbH (Freiburg, Germany). As substrate for the kinase reaction biotinylated peptide biotin-Ttds-[…] (C-terminus in amid form) was used which can be purchased e.g. form the company JERINI Peptide Technologies (Berlin, Germany).
# as §2, with “CDK2/CycE” for “CDK9/CycT1”, “130 ng/ml.” for “1 μg/ml.”
# as §3, with “TR-FRET” for “HTRF”
# [3] = system: HeLa, human cervical tumour cells; experiment: Proliferation assay, HeLa (Method 3); assay type: cell-based; conditions: 4 days, crystal violet, read-out: Inhibition of HeLa cell proliferation IC50
# Procedure: (§4) After 24 hours, the cells of one plate (zero-point plate) were stained with crystal violet (see below), while the medium of the other plates was replaced by fresh culture medium (200 μl), to which the test substances were added in various concentrations (0 μM, as well as in the range of 0.001-10 μM; the final concentration of the solvent dimethyl sulfoxide was 0.5%). The cells were incubated for 4 days in the presence of test substances. Cell proliferation was determined by staining the cells with crystal violet: the cells were fixed by adding 20 μl/measuring point of an 11% glutaric aldehyde solution for 15 minutes at room temperature. After three washing cycles of the fixed cells with water, the plates were dried at room temperature. The cells were stained by adding 100 μl/measuring point of a 0.1% crystal violet solution (pH 3.0). After three washing cycles of the stained cells with water, the plates were dried at room temperature. The dye was dissolved by adding 100 μl/measuring point of a 10% acetic acid solution. The extinction was determined by photometry at a wavelength of 595 nm. The change of cell number, in percent, was calculated by normalization of the measured values to the extinction values of the zero-point plate (=0%) and the extinction of the untreated (0 μm) cells (=100%).
# [4] = system: A2780, human ovarian carcinoma cells; experiment: Proliferation assay, A2780 (Method 3); assay type: cell-based; conditions: A2780, 4 days, crystal violet, read-out: Inhibition of A2780 cell proliferation IC50
# Procedure: as §4
# T1 sequence (P50750 whole entry): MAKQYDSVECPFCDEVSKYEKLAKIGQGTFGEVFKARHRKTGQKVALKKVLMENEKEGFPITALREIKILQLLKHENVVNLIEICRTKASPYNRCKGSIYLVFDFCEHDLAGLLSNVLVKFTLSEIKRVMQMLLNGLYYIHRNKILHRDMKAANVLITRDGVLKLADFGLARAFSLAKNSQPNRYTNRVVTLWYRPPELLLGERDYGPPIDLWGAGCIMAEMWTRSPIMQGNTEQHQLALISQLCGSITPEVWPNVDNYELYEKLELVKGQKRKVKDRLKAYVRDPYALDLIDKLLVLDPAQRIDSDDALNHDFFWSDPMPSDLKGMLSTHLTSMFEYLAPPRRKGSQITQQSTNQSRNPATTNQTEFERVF
# T1 sequence (O60563 whole entry partner): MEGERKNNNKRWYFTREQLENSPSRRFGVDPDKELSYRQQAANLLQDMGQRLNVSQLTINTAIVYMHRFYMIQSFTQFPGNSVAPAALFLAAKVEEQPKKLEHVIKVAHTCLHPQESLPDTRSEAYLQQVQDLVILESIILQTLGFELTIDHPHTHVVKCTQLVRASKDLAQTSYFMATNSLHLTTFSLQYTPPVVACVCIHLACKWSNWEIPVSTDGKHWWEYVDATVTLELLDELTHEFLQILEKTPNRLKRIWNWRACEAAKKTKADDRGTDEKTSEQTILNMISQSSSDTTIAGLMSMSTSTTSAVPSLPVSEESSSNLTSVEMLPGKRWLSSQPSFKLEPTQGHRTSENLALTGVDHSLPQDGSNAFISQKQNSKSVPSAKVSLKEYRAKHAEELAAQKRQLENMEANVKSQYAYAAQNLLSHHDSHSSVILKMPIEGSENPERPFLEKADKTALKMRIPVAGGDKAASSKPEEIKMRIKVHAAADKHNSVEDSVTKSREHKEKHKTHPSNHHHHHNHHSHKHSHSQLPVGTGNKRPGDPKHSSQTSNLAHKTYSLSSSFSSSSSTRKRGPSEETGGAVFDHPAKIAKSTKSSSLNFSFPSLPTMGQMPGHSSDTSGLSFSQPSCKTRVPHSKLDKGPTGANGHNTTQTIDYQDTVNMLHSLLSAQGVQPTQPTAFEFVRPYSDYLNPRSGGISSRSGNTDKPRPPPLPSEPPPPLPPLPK
SMILES,pIC50 (CDK9/CycT1 [1]),Selectivity CDK9/CDK2 (CDK9/CycT1 [1]),pIC50 (CDK9/CycT1 [2]),pIC50 (CDK2/CycE),"pIC50 ([3]; Homo sapiens, 96 h)","pIC50 ([4]; Homo sapiens, A2780, 96 h)",pIC50 [3],pIC50 [4]
"CS(=N)(=O)Cc1cccc(Nc2ncc(F)c(-c3ccc(F)cc3F)n2)c1 (racemic) [Example 9, (rac)-4-(2,4-Difluorophenyl)-5-fluoro-N-{3-[(S-methylsulfonimidoyl)methyl]phenyl}pyrimidin-2-amine]",7.38,25,5.57,5.96,–,–,–,–
"Cc1cc(CS(C)(=N)=O)cc(Nc2ncc(F)c(-c3ccc(F)cc3F)n2)c1 (racemic) [Example 17, (rac)-4-(2,4-Difluorophenyl)-5-fluoro-N-{3-methyl-5-[(S-methylsulfonimidoyl)methyl]phenyl}pyrimidin-2-amine]",7.59,19,6.33,6.32,5.87,6.74,–,–
"COCCS(=O)(Cc1cc(Nc2ncc(F)c(-c3ccc(F)cc3F)n2)cc(C(F)(F)F)c1)=NC#N (racemic) [Example 22, (rac)-{[3-{[4-(2,4-Difluorophenyl)-5-fluoropyrimidin-2-yl]amino}-5-(trifluoromethyl)benzyl](2-methoxyethyl)oxido-λ^6-sulfanylidene}cyanamide]",8.15,183,7.72,5.92,6.05,–,–,–
"N=S(=O)(CCN)Cc1cc(Nc2ncc(F)c(-c3ccc(F)cc3F)n2)cc(C(F)(F)F)c1 (racemic) [Example 25, (rac)-N-[3-{[S-(2-Aminoethyl)sulfonimidoyl]methyl}-5-(trifluoromethyl)phenyl]-4-(2,4-difluorophenyl)-5-fluoropyrimidin-2-amine trifluoroacetate]",7.07,38,6.38,5.49,5.66,–,–,–
"N=S(=O)(CCN)Cc1cc(Nc2ncc(F)c(-c3ccc(F)cc3F)n2)cc(C(F)(F)F)c1 (single isomer, unassigned) [Example 26, N-[3-{[S-(2-Aminoethyl)sulfonimidoyl]methyl}-5-(trifluoromethyl)phenyl]-4-(2,4-difluorophenyl)-5-fluoropyrimidin-2-amine]",–,–,6.56,5.89,–,–,–,–
"N=S(=O)(CCN)Cc1cc(Nc2ncc(F)c(-c3ccc(F)cc3F)n2)cc(C(F)(F)F)c1 (single isomer, unassigned) [Example 27, N-[3-{[S-(2-Aminoethyl)sulfonimidoyl]methyl}-5-(trifluoromethyl)phenyl]-4-(2,4-difluorophenyl)-5-fluoropyrimidin-2-amine]",–,–,6.56,5.96,–,–,–,–
"Cc1cc(CS(C)(=N)=O)cc(Nc2ncc(F)c(-c3ccc(F)cc3F)n2)c1 (single isomer, unassigned) [Example 37, 4-(2,4-Difluorophenyl)-5-fluoro-N-{3-methyl-5-[(S-methylsulfonimidoyl)methyl]-phenyl}pyrimidin-2-amine]",7.44,23,5.20,6.08,5.97,–,–,–
"Cc1cc(CS(C)(=N)=O)cc(Nc2ncc(F)c(-c3ccc(F)cc3F)n2)c1 (single isomer, unassigned) [Example 38, 4-(2,4-Difluorophenyl)-5-fluoro-N-{3-methyl-5-[(S-methylsulfonimidoyl)methyl]-phenyl}pyrimidin-2-amine]",7.72,38,5.19,6.14,–,–,6.19,–
"CS(=O)(Cc1cc(Br)cc(Nc2ncc(F)c(-c3ccc(F)cc3F)n2)c1)=NC#N (single isomer, unassigned) [Example 39, [(3-Bromo-5-{[4-(2,4-difluorophenyl)-5-fluoropyrimidin-2-yl]amino}benzyl)(methyl)oxido-λ^6-sulfanylidene]cyanamide]",–,–,–,6.37,5.97,6.21,–,–
"CS(=O)(Cc1cc(Br)cc(Nc2ncc(F)c(-c3ccc(F)cc3F)n2)c1)=NC#N (single isomer, unassigned) [Example 40, [(3-Bromo-5-{[4-(2,4-difluorophenyl)-5-fluoropyrimidin-2-yl]amino}benzyl)(methyl)oxido-λ^6-sulfanylidene]cyanamide]",–,–,–,6.99,–,–,6.16,6.43
